Assay results published in paper PMC12088962, “Design, synthesis, and biological investigation of new thiazole-based derivatives as multi-targeted inhibitors endowed with antiproliferative, antioxidant, and antibacterial properties” (Frontiers in Chemistry, 2025).

Experiments:
[1] = system: four cancer cell lines (A-549, MCF-7, Panc-1, HT-29); experiment: Antiproliferative MTT assay, average over four cancer cell lines; details: for GI50: Homo sapiens, read-out: Antiproliferative activity, Average (GI50)
Text: (§1) Dose-response assays determined the IC50 values for the novel compounds. We derived the reported data from a minimum of two separate experiments, each consisting of three repetitions per concentration.
Assay for antiproliferative effect

Panc-1 cells = experiment: Antiproliferative MTT assay; details: Homo sapiens, PANC-1, read-out: Antiproliferative activity IC50 ± SEM, Panc-1
Text: as §1
Assay for antiproliferative effect

A-549 cells = experiment: Antiproliferative MTT assay; details: Homo sapiens, A549, read-out: Antiproliferative activity IC50 ± SEM, A-549
Text: as §1
Assay for antiproliferative effect

HT-29 cells = experiment: Antiproliferative MTT assay; details: Homo sapiens, HT-29, read-out: Antiproliferative activity IC50 ± SEM, HT-29
Text: as §1
Assay for antiproliferative effect

E. coli DNA gyrase = E. coli DNA gyrase (Escherichia coli, UniProt P0AES6); experiment: DNA gyrase supercoiling assay; format: biochemical; details: for remaining activity at 1 µM: read-out: RA (residual activity of the enzyme), E. Coli DNA gyrase
Experimental: 4.2.3. Determination of Inhibitory Activities on E. coli DNA Gyrase.
All the final compounds were tested for E. coli DNA gyrase inhibitory activity in a supercoiling assay. Activities were determined on streptavidin -coated 96-well microtiter plates from Thermo scientific Pierce. First, the plates were rehydrated with buffer (20 mM Tris -HCl with pH 7.6, 0.01% […]
immobilized. After washing off the unbound oligonucleotide, the enzyme test was performed. The reaction volume of 30 μL in buffer (35 mM Tris-HCl with pH 7.5, 4 mM MgCl 2, 24 mM KCl, 2 […]
1.5 U of DNA gyrase from E. coli or S. aureus, 0.75 μg of relaxed pNO1 plasmid, and 3 μL solution of the inhibitor in 1 0% DMSO and 0.008% Tween 20. Reaction solutions were incubated at 37 °C […]
for 30 min. After that, the TF buffer (50 mM NaOAc with pH 5.0, 50 mM NaCl and 50 mM MgCl2) was added to terminate the enzymatic reaction. After additional incubation for 30 min at rt, during which biotin-oligonucleotide-plasmid triplex was formed, the unbound plasmid was washed off using TF buffer and SybrGOLD in T10 buffer (10 mM Tris HCl wit h pH 8.0 and 1 mM EDTA) was added. The fluorescence was measured with a microplate reader (BioTek Synergy H4, excitation: 485 nm, emission: 535 nm). […]
tested compounds. GraphPad Prism software was used to calculate the IC50 values. The result is given as the average value of three independent measurements. […]

MCF-7 cells = experiment: Antiproliferative MTT assay; details: Homo sapiens, MCF7, read-out: Antiproliferative activity IC50 ± SEM, MCF-7
Text: as §1
Assay for antiproliferative effect

in vitro = details: human, MCF-10A mammary gland epithelial cells (normal cell line)

SMILES	Fold less potent than compound 11f (GI50) [1]	GI50 [1]	IC50 (Panc-1 cells)	IC50 (A-549 cells)	IC50 (HT-29 cells)	Fold less effective than compound 11b (DNA gyrase IC50) (E. coli DNA gyrase)	IC50 (E. coli DNA gyrase)	IC50 (MCF-7 cells)	viability at 96 h, 50 µM (in vitro)	Fold less effective than 11d (GI50) [1]	remaining activity at 1 µM (E. coli DNA gyrase)	Fold less efficient than 11e (GI50) [1]
COc1ccc(/C=C/C(=O)c2sc(SCC(=O)c3cc4cc(Br)ccc4o3)nc2C)cc1 [Compound 12f, (E)-1-(2-((2-(5-Bromobenzofuran-2-yl)-2-oxoethyl)thio)-4-methylthiazol-5-yl)-3-(4-methoxyphenyl)prop-2-en-1-one]	2.1 fold	0.057 µM	0.056 ± 0.004 µM	0.055 ± 0.004 µM	0.056 ± 0.004 µM	approximately 1.2 fold	0.208 ± 0.015 µM	0.059 ± 0.004 µM	92%			
Cc1nc(SCC(=O)c2cc3cc(Br)ccc3o2)sc1C(=O)/C=C/c1ccccc1 [Compound 12d, (E)-1-(2-((2-(5-Bromobenzofuran-2-yl)-2-oxoethyl)thio)-4-methylthiazol-5-yl)-3-phenylprop-2-en-1-one]		0.048 µM	0.048 ± 0.003 µM	0.045 ± 0.003 µM	0.048 ± 0.003 µM			0.05 ± 0.003 µM	90%	1.6 fold	65%	
Cc1nc(SCC(=O)c2cc3ccccc3o2)sc1C(=O)/C=C/c1ccccc1 [Compound 12a, (E)-1-(2-((2-(Benzofuran-2-yl)-2-oxoethyl)thio)-4-methylthiazol-5-yl)-3-phenylprop-2-en-1-one]		0.067 µM	0.066 ± 0.005 µM	0.065 ± 0.005 µM	0.066 ± 0.005 µM			0.07 ± 0.005 µM	93%		61%	
C#Cc1cccc(Nc2ncnc3cc(OCCOC)c(OCCOC)cc23)c1 [Erlotinib, reference compound]			0.03 ± 0.003 µM	0.03 ± 0.003 µM	0.03 ± 0.003 µM			0.04 ± 0.003 µM				
Cc1nc(SCC(=O)c2cc3cc(Br)ccc3o2)sc1C(=O)/C=C/c1ccc(Cl)cc1 [Compound 12e, (E)-1-(2-((2-(5-bromobenzofuran-2-yl)-2-oxoethyl)thio)-4-methylthiazol-5-yl)-3-(4-chlorophenyl)prop-2-en-1-one]		0.062 µM	0.062 ± 0.005 µM	0.06 ± 0.005 µM	0.062 ± 0.005 µM	approximately 1.2 fold	0.217 ± 0.015 µM	0.064 ± 0.005 µM	94%			1.5 fold
